The target in this assay is T1, Hsp90.
T1 construct: gene HSP82; C-terminus of Hsp90 (C-Hsp90, 629–732, 15 kDa), His-tagged
The experiment in a line: intrinsic fluorescence quenching titration with purified Hsp90 domains. Format: binding. An excerpt:
intrinsic fluorescence quenching titration with purified Hsp90 domains on Hsp90 | Dissociation constant (Kd) values of C212 with different Hsp90 domains

The values that follow come from article PMC7523331, “Curcumin derivative C212 inhibits Hsp90 and eliminates both growing and quiescent leukemia cells in deep dormancy” (Cell Communication and Signaling : CCS, 2020).

Usually Kd stands for the free concentration of one partner at which half of the binding sites on the other are occupied at equilibrium, for simple one-to-one binding. High values mean lower affinity, low ones higher affinity. For the compound `O=C(/C=C/c1cccnc1)C(Cc1ccccc1Cl)C(=O)/C=C/c1cccnc1` [C212, (1E,6E)-4-(2-Chlorinebenzyl)-1,7-bis(3-pyridine)-1,6-heptadiene-3,5-dione], binding was put at a Kd of 15.3 ± 1.2 µM.
